Where two headings read alike, the source gives them in different places.
Assays:
Assay type in all cases: biochemical
[1] = target: T1, CYP3A4 (Homo sapiens, UniProt P08684); test: Determination of IC50 against CYP3A4 by measurement of inhibition of midazolam metabolism (human liver microsomes, 1-hydroxymidazolam by LC-MS/MS); set-up: 0.1 mg/mL human liver microsomes; settings: 2 μM midazolam, 0.1 mg/mL human liver microsomes
Method in brief: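 Human liver microsomes (0.1 mg/mL) incubated 8 min with 2 μM midazolam and 1 mM NADPH in 100 mM potassium phosphate, pH 7.4. 1-Hydroxymidazolam quantified by LC-MS/MS (MRM) as peak area ratio to internal standard against a metabolite standard curve.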

[2] = target: T1, CYP3A4; test: Determination of IC50 against CYP3A4 by measurement of inhibition of testosterone metabolism (human liver microsomes, 6-β-OH-testosterone by LC-MS/MS); set-up: 0.1 mg/mL human liver microsomes; settings: read-out: IC50 (Testo.)
Description: 2. Determination of IC50 Against CYP3A4 by Measurement of Inhibition of Testosterone Metabolism
This assay was performed using a standard 96 well plate design. […] The incubation substrate mix contains 25 μM testosterone, 0.1 mg/mL human liver microsomes, 1 mM NADPH, and potassium phosphate buffer (100 mM, pH 7.4). Quantitation of metabolite peak area ratio against an internal standard is determined by LC-MS/MS analysis. The production of 6-β-OH-testosterone from testosterone metabolism is determined after incubation for eight minutes by comparison to a standard curve generated for the metabolite
Samples were analyzed in the MRM mode using a Sciex API 3000 mass spectrometer (Applied Biosystems, Foster City, Calif.) with a Paradigm MS4 binary pump (Michrom BioResources Inc., Auburn, Calif.) and a LEAP CTC PAL autosampler (LEAP Technologies, Carrboro, N.C.). A Phenomenex Synergi, 4μ, Polar-RP, 10×2.0 mm column (Phenomenex, Torrance, Calif.) was used for separation with a mobile phase composition of: 0.1% formic acid in water (A) and: 0.1% formic acid in methanol (B). The following gradient was used: […]
The sample injection volume was 10 μL and flow was split post-column with 0.4 mL/min going to the mass spectrometer. Analysis was performed using the following API 3000 mass spectrometer settings: […]

[3] = target: T1, CYP3A4; test: Determination of compound Kiapp against recombinant CYP3A4 enzyme (BFC fluorescent substrate)
Method in brief: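 Recombinant CYP3A4 (5.5 or 8 nM, with or without b5 depending on source) pre-incubated with inhibitor ≥30 min at room temperature in 100 mM sodium phosphate pH 7.0, 5 mM TCEP, 2% DMF. Reaction started with 200 uM NADPH and 5 uM BFC; initial fluorescence rates over 5 min fitted to Morrison tight-binding (non-partial) or Szedlacsek (partial) equations for Kiapp.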

[4] = Baculo. enzyme preparation, read-out: Kiapp (BFC, Baculo.)
[5] = Super. enzyme preparation, read-out: Kiapp (BFC, Super.)

T1 sequence (P08684 whole entry): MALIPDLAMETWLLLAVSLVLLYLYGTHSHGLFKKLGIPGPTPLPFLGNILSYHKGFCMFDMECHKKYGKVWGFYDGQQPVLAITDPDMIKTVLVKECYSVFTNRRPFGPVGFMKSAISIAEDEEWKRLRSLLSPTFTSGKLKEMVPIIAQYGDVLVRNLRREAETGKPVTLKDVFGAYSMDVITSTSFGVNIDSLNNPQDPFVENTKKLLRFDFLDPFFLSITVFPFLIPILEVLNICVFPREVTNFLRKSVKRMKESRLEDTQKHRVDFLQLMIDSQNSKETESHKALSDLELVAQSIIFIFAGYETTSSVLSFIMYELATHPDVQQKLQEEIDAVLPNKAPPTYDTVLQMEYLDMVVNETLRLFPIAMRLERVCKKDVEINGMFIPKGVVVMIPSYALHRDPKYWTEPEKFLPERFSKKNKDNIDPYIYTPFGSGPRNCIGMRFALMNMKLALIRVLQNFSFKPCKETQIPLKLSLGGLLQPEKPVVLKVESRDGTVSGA

Structure (SMILES) | IC50 [1] [nM] | IC50 [2] [nM] | Ki [3, 4] [nM] | Ki [3, 5] [nM]
CC1CC(C)CN(C(=O)c2ccccc2S(=O)(=O)Nc2cccnc2)C1 (stereo not drawn) [Example 25, 2-[(3,5-dimethylpiperidin-1-yl)carbonyl]-N-pyridin-3-ylbenzenesulfonamide] | 45 | 77 | 239 | 
COC1CCN(C(=O)c2ccccc2S(=O)(=O)Nc2cccnc2)CC1 [Example 26, 2-[(4-methoxypiperidin-1-yl)carbonyl]-N-pyridin-3-ylbenzenesulfonamide] | 494 | 691 | > 1000 | 
C[C@@H]1CN(C(=O)c2ccccc2S(=O)(=O)Nc2cccnc2)C[C@H](C)O1 [Example 27, 2-{[(2R,6S)-2,6-dimethylmorpholin-4-yl]carbonyl}-N-pyridin-3-ylbenzenesulfonamide] | 658 | > 750 | > 1000 | 
O=C(c1ccccc1S(=O)(=O)Nc1cccnc1)N1CCC(O)CC1 [Example 28, 2-[(4-hydroxypiperidin-1-yl)carbonyl]-N-pyridin-3-ylbenzenesulfonamide] | > 750 | > 750 | > 1000 | 
CC1(C)CCCN(C(=O)c2ccccc2S(=O)(=O)Nc2cccnc2)C1 [Example 29, 2-[(3,3-dimethylpiperidin-1-yl)carbonyl]-N-pyridin-3-ylbenzenesulfonamide] | 76 | 172 | 324 | 
Cc1cncc(NS(=O)(=O)c2ccccc2C(=O)N2CCCCC2)c1 [Example 30, N-(5-methylpyridin-3-yl)-2-(piperidin-1-ylcarbonyl)benzenesulfonamide] | 56 | 125 | 690 | 
CCCCNC(=O)c1ccccc1S(=O)(=O)Nc1cncc(C)c1 [Example 31, N-butyl-2-{[(5-methylpyridin-3-yl)amino]sulfonyl}benzamide] | 23 | 38 | 70.1 | 
CC(C)(CN1CCOCC1)NC(=O)c1ccccc1S(=O)(=O)Nc1cccnc1 [Example 33, N-(1,1-dimethyl-2-morpholin-4-ylethyl)-2-[(pyridin-3-ylamino)sulfonyl]benzamide] | 111 | 473 | > 1000 | 
CC(C)(COCc1ccccc1)NC(=O)c1ccccc1S(=O)(=O)Nc1cccnc1 [Example 34, N-[2-(benzyloxy)-1,1-dimethylethyl]-2-[(pyridin-3-ylamino)sulfonyl]benzamide] | > 750 | > 750 | > 1000 | 
CN1CCN(C(=O)c2ccccc2S(=O)(=O)Nc2cccnc2)CC1 [Example 35, 2-[(4-methylpiperazin-1-yl)carbonyl]-N-pyridin-3-ylbenzenesulfonamide] | > 750 | > 750 | > 1000 | 
CCOC(=O)N1CCN(C(=O)c2ccccc2S(=O)(=O)Nc2cccnc2)CC1 [Example 36, ethyl 4-{2-[(pyridin-3-ylamino)sulfonyl]benzoyl} piperazine-1-carboxylate] | > 750 | > 750 | > 1000 | 
CN(C)CCNC(=O)c1ccccc1S(=O)(=O)Nc1cccnc1 [Example 37] | > 750 | > 750 | > 1000 | 
CCC(C)(C)NC(=O)c1ccccc1S(=O)(=O)Nc1cccnc1 [Example 38, N-(1,1-dimethylpropyl)-2-[(pyridin-3-ylamino)sulfonyl]benzamide] | 68 | 84 | 644 | 
CC(C)(CO)NC(=O)c1ccccc1S(=O)(=O)Nc1cccnc1 [Example 39, N-(2-hydroxy-1,1-dimethylethyl)-2-[(pyridin-3-ylamino)sulfonyl]benzamide] | > 500 | > 500 | > 1000 | 
CCN(CCn1cccn1)C(=O)c1ccccc1S(=O)(=O)Nc1cccnc1 [Example 40, N-ethyl-N-[2-(1H-pyrazol-1-yl)ethyl]-2-[(pyridin-3-ylamino)sulfonyl]benzamide] | 179 | 340 | > 1000 | 
CC1CCN(C(=O)c2ccccc2S(=O)(=O)Nc2cccnc2)CC1 [Example 41, 2-[(4-methylpiperidin-1-yl)carbonyl]-N-pyridin-3-ylbenzenesulfonamide] | 62.8 | 83.4 | 486 | 30.3

Structure (SMILES) | IC50 [1] [nM] | IC50 [2] [nM] | Ki [3, 4] [nM] | Ki [3, 5] [nM]
CC(C)CCNC(=O)c1ccccc1S(=O)(=O)Nc1cccnc1 [Example 42, N-(3-methylbutyl)-2-[(pyridin-3-ylamino)sulfonyl]benzamide] | 35.9 | 51.5 | 378 | 22.5
O=C(NCc1cccc(F)c1)c1ccccc1S(=O)(=O)Nc1cccnc1 [Example 43, N-(3-fluorobenzyl)-2-[(pyridin-3-ylamino)sulfonyl]benzamide] | 13.4 | 21.7 | 269 | 16.5
CC(C)(C)CNC(=O)c1ccccc1S(=O)(=O)Nc1cccnc1 [Example 44, N-(2,2-dimethylpropyl)-2-[(pyridin-3-ylamino)sulfonyl]benzamide] | 72 | 167 | 617 | 
COc1cccc(OC)c1CNC(=O)c1ccccc1S(=O)(=O)Nc1cccnc1 [Example 45, N-(2,6-dimethoxybenzyl)-2-[(pyridin-3-ylamino)sulfonyl]benzamide] | 20 | 42 | 382 | 
COc1cccc(CNC(=O)c2ccccc2S(=O)(=O)Nc2cccnc2)c1 [Example 46, N-(3-methoxybenzyl)-2-[(pyridin-3-ylamino)sulfonyl]benzamide] | 23 | 23 | 325 | 
CCCCCN(C)C(=O)c1ccccc1S(=O)(=O)Nc1cccnc1 [Example 47, N-methyl-N-pentyl-2-[(pyridin-3-ylamino)sulfonyl]benzamide] | 26 | 30 | 332 | 
O=C(NCC1CC1)c1ccccc1S(=O)(=O)Nc1cccnc1 [Example 48, N-(cyclopropylmethyl)-2-[(pyridin-3-ylamino)sulfonyl]benzamide] | 327 | 335 | > 1000 | 
CC(C)NC(=O)c1ccccc1S(=O)(=O)Nc1cccnc1 [Example 49, N-isopropyl-2-[(pyridin-3-ylamino)sulfonyl]benzamide] | 328 | > 500 | > 1000 | 
CCCNC(=O)c1ccccc1S(=O)(=O)Nc1cccnc1 [Example 50, N-propyl-2-[(pyridin-3-ylamino)sulfonyl]benzamide] | 254 | 371 | > 1000 | 
COc1cc(CNC(=O)c2ccccc2S(=O)(=O)Nc2cccnc2)cc(OC)c1 [Example 51, N-(3,5-dimethoxybenzyl)-2-[(pyridin-3-ylamino)sulfonyl]benzamide] | 34 | 57 | 680 | 
O=C(NCc1cccc2[nH]ccc12)c1ccccc1S(=O)(=O)Nc1cccnc1 [Example 52, N-(1H-indol-4-ylmethyl)-2-[(pyridin-3-ylamino)sulfonyl]benzamide] | 27 | 73 | 560 | 
COc1ccc(CNC(=O)c2ccccc2S(=O)(=O)Nc2cccnc2)c(OC)c1 [Example 53, N-(2,4-dimethoxybenzyl)-2-[(pyridin-3-ylamino)sulfonyl]benzamide] | 24 | 49 | 613 | 
CCCN(CC1CC1)C(=O)c1ccccc1S(=O)(=O)Nc1cccnc1 [Example 54, N-(cyclopropylmethyl)-N-propyl-2-[(pyridin-3-ylamino)sulfonyl]benzamide] | 15 | 26 | 239 | 
CN(Cc1ccccc1)C(=O)c1ccccc1S(=O)(=O)Nc1cccnc1 [Example 55, N-benzyl-N-methyl-2-[(pyridin-3-ylamino)sulfonyl]benzamide] | 40.6 | 54.5 | 385 | 14.2
O=C(NCCOc1ccccc1)c1ccccc1S(=O)(=O)Nc1cccnc1 [Example 56, N-(2-phenoxyethyl)-2-[(pyridin-3-ylamino)sulfonyl]benzamide] | 48.9 | 62 | 340 | 22.4
COc1ccc(CNC(=O)c2ccccc2S(=O)(=O)Nc2cccnc2)cc1 [Example 57, N-(4-methoxybenzyl)-2-[(pyridin-3-ylamino)sulfonyl]benzamide] | 69.6 | 93.3 | 353 | 35

— US7868026B2, “Therapeutic compounds” (Pfizer Inc., priority 2005, dated 2011)
